Experimental data published in ChEMBL document CHEMBL3046080, “Synthesis of imidazole-derived steroidal hybrids as potent aromatase inhibitors” (Med Chem Res, 2013).

What was measured:
aromatase (CYP19) [1] = target: T1, aromatase (CYP19) (Homo sapiens, UniProt P11511); experiment: Inhibition of aromatase in Homo sapiens (human) placental microsome assessed as tritiated H2O release from [1-beta-3H] androstenedione substrate at 36 uM preincubated with substrate for 5 min prior to enzyme addition measured after 20 min by beta-scintillation counting analysis; set-up: species or system Placenta; details: placental microsomes, probe [1-beta-3H] androstenedione
T1 sequence (P11511 whole entry): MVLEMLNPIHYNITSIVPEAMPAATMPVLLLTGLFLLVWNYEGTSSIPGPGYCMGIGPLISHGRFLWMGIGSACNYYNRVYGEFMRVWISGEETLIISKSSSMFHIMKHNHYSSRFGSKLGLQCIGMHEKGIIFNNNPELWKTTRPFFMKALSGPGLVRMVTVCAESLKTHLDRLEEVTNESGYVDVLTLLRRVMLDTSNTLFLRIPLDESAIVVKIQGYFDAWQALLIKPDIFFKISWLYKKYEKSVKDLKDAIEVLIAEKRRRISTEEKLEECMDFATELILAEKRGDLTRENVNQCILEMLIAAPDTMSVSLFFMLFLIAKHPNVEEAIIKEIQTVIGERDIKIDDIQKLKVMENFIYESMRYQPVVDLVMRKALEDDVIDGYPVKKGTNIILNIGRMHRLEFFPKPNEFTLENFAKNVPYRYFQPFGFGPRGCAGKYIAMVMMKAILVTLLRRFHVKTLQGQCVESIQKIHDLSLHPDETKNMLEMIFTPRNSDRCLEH

Aromatase = target: T2, Aromatase (Homo sapiens, UniProt P11511); set-up: species or system Placenta, Microsome
T2 sequence (P11511 whole entry): T1 sequence (P11511 whole entry)
Description: Inhibition of aromatase in Homo sapiens (human) placental microsome assessed as tritiated H2O release from [1-beta-3H] androstenedione substrate preincubated with substrate for 5 min prior to enzyme addition measured after 20 min by beta-scintillation counting analysis

aromatase (CYP19) [2] = target: T1, aromatase (CYP19); experiment: Inhibition of aromatase in Homo sapiens (human) placental microsome assessed as tritiated H2O release from [1-beta-3H] androstenedione substrate at 5 uM preincubated with substrate for 5 min prior to enzyme addition measured after 20 min by beta-scintillation counting analysis; set-up: species or system Placenta; details: placental microsomes, probe [1-beta-3H] androstenedione

Question: Which inhibition at 20 min, 36 µM (aromatase (CYP19) [1]) does the source give for `CC(=O)O[C@H]1CC[C@@]2(C)C(=CC[C@H]3[C@@H]4C/C(=C\c5cccc(OCCCn6ccnc6)c5)[C@H](OC(C)=O)[C@@]4(C)CC[C@@H]32)C1` here?
Answer: 34%

Question: How did the IC50 (Aromatase) turn out when `C[C@]12CC[C@H]3[C@@H](CC=C4C[C@@H](O)CC[C@@]43C)[C@@H]1C/C(=C\c1cccc(OCCCn3ccnc3)c1)[C@@H]2O` was run?
Answer: 9.1 µM

Question: With `C[C@]12CCC(=O)C=C1CC[C@@H]1[C@@H]2CC[C@]2(C)C(=O)/C(=C/c3ccc(OCCCn4ccnc4)cc3)C[C@@H]12` as the compound, how does the IC50 (Aromatase) read?
Answer: 11.9 µM

Question: Which inhibition at 20 min, 36 µM (aromatase (CYP19) [1]) does the source give for `C[C@]12CC[C@H](O)CC1=CC[C@@H]1[C@@H]2CC[C@]2(C)C(=O)/C(=C/c3cccc(OCCCn4ccnc4)c3)C[C@@H]12` here?
Answer: 34%

Question: How did the inhibition at 20 min, 36 µM (aromatase (CYP19) [1]) turn out when `CC(=O)O[C@H]1CC[C@@]2(C)C(=CC[C@@H]3[C@@H]2CC[C@]2(C)C(=O)/C(=C/c4cccc(OCCCn5ccnc5)c4)C[C@@H]32)C1` was run?
Answer: 38%

Question: How did the inhibition at 20 min, 5 µM (aromatase (CYP19) [2]) turn out when `C[C@]12CC[C@H](O)CC1=CC[C@@H]1[C@@H]2CC[C@]2(C)C(=O)/C(=C/c3ccc(OCCCCl)cc3)C[C@@H]12` was run?
Answer: 0.2%

Question: `C[C@]12CC[C@H](O)CC1=CC[C@@H]1[C@@H]2CC[C@]2(C)C(=O)/C(=C/c3ccc(OCCCn4ccnc4)cc3)C[C@@H]12` was tested. Which inhibition at 20 min, 5 µM (aromatase (CYP19) [2]) did it give?
Answer: 4.1%
